The nature of data set [1]: Neurotoxicity in mouse by rotarod test. It is filed as toxicity. As to conditions: in vivo. Background: Falling from the rotarod earlier than controls is read as motor impairment.
Data set [2] is filed under the species Mus musculus. The data set is described as follows: Anticonvulsant activity in albino mouse assessed as pentylenetetrazole-induced seizure. It is filed as functional.
Data set [3] in a line: Protective index, ratio of TD50 for neurotoxicity in mouse to ED50 for anticonvulsant activity in mouse assessed as protection against pentylenetetrazole-induced seizure. The data set is classed as toxicity. To be noted: in vivo, read-out: PI.
Data set [4] can be described thus: Protective index, ratio of TD50 for neurotoxicity in mouse to ED50 for anticonvulsant activity in mouse assessed as protection against current-induced seizure. It is filed as toxicity. As to conditions: in vivo, read-out: PI.
The species entered for data set [5] is Mus musculus. The data set is described as follows: Anticonvulsant activity in mouse assessed as protection against current-induced seizure by maximal electroshock seizure test. The data set is classed as functional.
The species named for data set [6] is Mus musculus. Put plainly: Anticonvulsant activity in albino mouse assessed as current-induced seizure relative to control. It is filed as functional.
The species named for data set [7] is Mus musculus. Put plainly: Anticonvulsant activity in albino mouse assessed as current-induced seizure latency time. It is filed as functional.
In data set [8] the test system is Mus musculus. The data set is described as follows: Anticonvulsant activity in albino mouse assessed as protection against 50 mA current-induced seizure at 100 mg/kg by maximal electroshock seizure test relative to control. The data set is classed as functional.
Data set [9] is filed under the species Mus musculus. Put plainly: Anticonvulsant activity in albino mouse assessed as protection against 50 mA current-induced seizure. It is filed as functional. As to conditions: read-out: PD50.
Data set [10] has as its system Mus musculus. Put plainly: Anticonvulsant activity in albino mouse assessed as protection against 50 mA current-induced seizure at 50 mg/kg by maximal electroshock seizure test relative to control. It is filed as functional. On the technique in general: Protection in the maximal electroshock model is a classic sign of anticonvulsant action.
Data set [11] concerns Mus musculus. The data set is described as follows: Anticonvulsant activity in albino mouse assessed as protection against 50 mA current-induced seizure at 200 mg/kg by maximal electroshock seizure test relative to control. It is filed as functional.
Data set [12] has as its system Mus musculus. The data set is described as follows: Anticonvulsant activity in ip injected albino mouse assessed as protection against 50 mA current-induced seizure after 0.5 to 4 hrs interval by maximal electroshock seizure test. It is filed as functional. To be noted: time hrs 0.5-4.
A short description of data set [13]: Neurotoxicity in ip injected albino mouse. It is filed as toxicity, organism-based. To be noted: in vivo.
The species named for data set [14] is Mus musculus. The data set is described as follows: Anticonvulsant activity in albino mouse assessed as pentylenetetrazole-induced seizure measured after 30 mins. It is filed as functional. As to conditions: 0.5 h.
Data set [15] can be described thus: Protective index, ratio of TD50 for neurotoxicity in ip injected albino mouse to ED50 for anticonvulsant activity in albino mouse assessed as pentylenetetrazole-induced seizure. To be noted: in vivo. It is filed as toxicity, organism-based.
Data set [16] is described as follows: Protective index, ratio of TD50 for neurotoxicity in ip injected albino mouse to ED50 for anticonvulsant activity in ip injected albino mouse assessed as protection against 50 mA current-induced seizure. The data set is classed as toxicity, organism-based. To be noted: in vivo.
Data set [17] can be described thus: Lipophilicity, log P of the compound. The data set is classed as physicochemical. To be noted: octanol/water.
For data set [18], the system named is Mus musculus. The data set is described as follows: Anticonvulsant activity in ip injected albino mouse assessed as protection against 50 mA current-induced seizure by maximal electroshock seizure test. The data set is classed as functional.
Data set [19] is described as follows: Neurotoxicity in ip and po injected mouse. The data set is classed as toxicity, organism-based. As to conditions: in vivo.
Data set [20] is described as follows: Protective index, ratio of TD50 for neurotoxicity in ip and po injected mouse to ED50 for anticonvulsant activity in mouse assessed as protection against 50 mA current-induced seizure. The data set is classed as toxicity, organism-based. To be noted: in vivo, read-out: PI.
For data set [21], the species on record is Mus musculus. Put plainly: Anticonvulsant activity in mouse assessed as protection against 50 mA current-induced seizure after 0.5 hrs by maximal electroshock seizure test. The data set is classed as functional.
The nature of data set [22]: Neurotoxicity in albino rat at 100 mg/kg, ip after 30 mins (reference value: 2%). It is filed as toxicity, organism-based. To be noted: in vivo, 0.5 h.
Data set [23] is described as follows: Neurotoxicity in KunMing mouse after 30 mins by rotarod test. The data set is classed as toxicity. To be noted: in vivo.
The species entered for data set [24] is Mus musculus. Put plainly: Anticonvulsant activity in KunMing mouse assessed as protection against current-induced seizure by maximal electroshock seizure test. The data set is classed as functional.
The species entered for data set [25] is Mus musculus. Put plainly: Anticonvulsant activity in KunMing mouse assessed as protection against 50 mA current-induced seizure after 0.5 to 4 hrs by maximal electroshock seizure test. The data set is classed as functional. To be noted: time hrs 0.5-4.
For data set [26], the species on record is Mus musculus. The data set is described as follows: Anticonvulsant activity in KunMing mouse assessed as protection against 50 mA current-induced seizure after 30 mins interval by maximal electroshock seizure test. The data set is classed as functional. As to conditions: 0.5 h.
The species named for data set [27] is Mus musculus. Put plainly: Anticonvulsant activity in albino mouse assessed as protection against 50 mA current-induced seizure by maximal electroshock seizure test. It is filed as functional.
For data set [28], the species on record is Mus musculus. The data set is described as follows: Anticonvulsant activity in KunMing mouse assessed as protection against pentylenetetrazole-induced seizure by maximal electroshock seizure test. The data set is classed as functional.
Data set [29] is described as follows: Neurotoxicity in KunMing mouse by rotarod test. It is filed as toxicity. To be noted: in vivo.
Data set [30] concerns Mus musculus. Put plainly: Anticonvulsant activity in albino mouse assessed as protection against 50 mA current-induced seizure at 30 mg/kg by maximal electroshock seizure test relative to control. It is filed as functional.
Data set [31] concerns Mus musculus. The data set is described as follows: Anticonvulsant activity in albino mouse assessed as protection against 50 mA current-induced seizure at 10 mg/kg by maximal electroshock seizure test relative to control. The data set is classed as functional.
The test system of data set [32] is Mus musculus. The data set is described as follows: Anticonvulsant activity in albino mouse assessed as protection against 50 mA current-induced seizure at 20 mg/kg by maximal electroshock seizure test relative to control. It is filed as functional.
In data set [33] the test system is Mus musculus. The data set is described as follows: Anticonvulsant activity in albino mouse assessed as protection against 50 mA current-induced seizure at 25 mg/kg by maximal electroshock seizure test relative to control. The data set is classed as functional.

Usually TD50 stands for the dose at which the toxic effect under study appears in half of the subjects. The low end stands for harm at a small dose, the high end for harm only at a large dose. Molecule `CN(C)c1ccc(C2CC(c3ccccc3)=NC(=S)N2C(=S)Nc2ccccc2)cc1` (centres undefined) showed a TD50 in data set [1] of 580 mg/kg. In addition, the values for the ED50 in the data set filed under Mus musculus [2] and in the data set filed under Mus musculus [5] were 332 mg/kg and 32.2 mg/kg, respectively. For the same molecule, the results for the selectivity ratio in data set [3] and in [4] were 1.7 and 18, respectively.
Take `CC(=O)Oc1cc2ccccc2cc1-c1nnc(N(C(C)=O)c2cccc(F)c2)s1`: the Activity in the data set listed under Mus musculus [6] amounted to 70%. The Time in the data set listed under Mus musculus [7] came to 4.41 min.
In the case of `O=C(CNC(=O)c1ccncc1)Nn1c(COc2ccc(Cl)cc2Cl)nc2ccccc2c1=O`, the Activity with Mus musculus [8] was 70%; with Mus musculus [10] it was 50%; with Mus musculus [11], 80%. In addition, the ED50 in the data set listed under Mus musculus [9] stood at 103 mg/kg.
For the molecule `S=C1N=C(c2ccccc2)CC(c2ccccc2)N1c1ccc(Cl)cc1` (centres undefined), the ED50 in the data set with Mus musculus [12] came to 19.4 mg/kg; in the data set filed under Mus musculus [14] it was 312 mg/kg. Besides, the TD50 in data set [13] amounted to 420 mg/kg. The selectivity ratio was 1.3 in data set [15] (read-out: PI) and 21.6 in data set [16] (read-out: PI).
As usually defined, the logP is a log measure of how a compound divides between an organic and an aqueous phase. A lower logP goes with lower lipophilicity. For the molecule `COc1ccc(-c2nc(N/N=C/c3cccc(F)c3)[nH]c(=O)c2C#N)cc1`, the logP in data set [17] was 2.13.
With `Nc1nc(-c2ccccc2)nnc1C(=O)N1CCCC1c1noc2cc(Br)ccc12` (centres undefined), the TD50 in [13] was more than 100 mg/kg. Besides, in the data set with Mus musculus [18], the ED50 stood at 12.2 mg/kg. For the same molecule, in data set [16] (read-out: Ratio), the selectivity ratio is more than 8.22.
`O=c1c2ccccc2n2cnnc2n1-c1ccc(Br)cc1`: the TD50 in data set [19] was more than 700 mg/kg. For the same molecule, the selectivity ratio in data set [20] is more than 26. Also, the ED50 in the data set filed under Mus musculus [21] amounted to 26.89.
Consider `Nc1ccc(Cl)cc1-c1n[nH]c(=O)n(-c2ccc(O)cc2)c1=O`, for which the TD50 in [13] is 682 mg/kg. Moreover, the ED50 was found to be 95.3 mg/kg in the data set listed under Mus musculus [2] and 51.1 mg/kg in the data set on Mus musculus [18]. The selectivity ratio in [15] (read-out: Ratio) was found to be 7.15; in data set [16] (read-out: Ratio) it was 13.6.
`Nc1nnc(C(=O)N2CCCC2c2noc3cc(F)ccc23)c(N)n1` (centres undefined): in data set [13], the TD50 was more than 200 mg/kg. The ED50 in the data set with Mus musculus [18] amounted to 7.1 mg/kg. In addition, in data set [16] (read-out: Ratio), the selectivity ratio is more than 28.2.
In data set [22], `CN(C)CCOc1ccc2c(c1)/C(=N/NC(N)=O)C(=O)N2` had an Activity of 7%.
Regarding `CN(C)Nc1ccc(/C=N/Nc2nnc(-c3ccccc3)nc2Cc2ccc(Cl)cc2)cc1`, the ED50 in the data set on Mus musculus [12] is 46 mg/kg; in the data set filed under Mus musculus [14], 83.9 mg/kg. The TD50 in data set [13] was 360 mg/kg. The selectivity ratio was found to be 4.29 in data set [15] (read-out: Ratio) and 7.82 in data set [16] (read-out: Ratio).
Turning to `NC(=O)N1c2ccccc2C=Cc2ccccc21` [CARBAMAZEPINE], the ED50 in the data set on Mus musculus [12] was 8.8 mg/kg; in the data set listed under Mus musculus [24], 11.8 mg/kg; in the data set filed under Mus musculus [25], 9.8 mg/kg; in the data set filed under Mus musculus [14], more than 100 mg/kg; in the data set listed under Mus musculus [26], 10.1 mg/kg; in the data set filed under Mus musculus [2] it was more than 100 mg/kg. In addition, the ED50 in the data set listed under Mus musculus [5] came to 11.8 mg/kg. The same molecule came in with a TD50 at 0.5 h in data set [23] of 69.1 mg/kg. In addition, the values for the TD50 in data set [1] and in data set [13] were 11.8 mg/kg and 65.5 mg/kg, respectively.
Consider `CN1C(=O)CN=C(c2ccccc2)c2cc(Cl)ccc21` [DIAZEPAM], for which the results for the ED50 in the data set filed under Mus musculus [27] and in the data set listed under Mus musculus [14] were 0.8 mg/kg and 0.7 mg/kg, respectively. Also, the Activity in data set [22] is 88%.
For `CCC1(C)CC(=O)NC1=O` (centres undefined) [ETHOSUXIMIDE], the results for the ED50 in the data set listed under Mus musculus [28], in the data set filed under Mus musculus [2] and with Mus musculus [18] were 106 mg/kg, 130 mg/kg and more than 1000 mg/kg, respectively. In addition, the selectivity ratio was 3.39 in [15] (read-out: Ratio) and less than 0.44 in data set [16] (read-out: Ratio). Besides, the TD50 in data set [29] turned out to be 343 mg/kg.
Regarding `CCC1(c2ccccc2)C(=O)NC(=O)NC1=O` [PHENOBARBITAL], the values for the Activity in the data set with Mus musculus [30], with Mus musculus [31] and with Mus musculus [32] were 100%, 40% and 60%, respectively. The ED50 in the data set listed under Mus musculus [25] was determined as 21.8 mg/kg; in the data set listed under Mus musculus [9], 14.4 mg/kg; in the data set filed under Mus musculus [5], 21.8 mg/kg.
Consider `O=C1N=C([O-])NC1(c1ccccc1)c1ccccc1.[Na+]` [PHENYTOIN SODIUM], for which the Activity with Mus musculus [33] came to 100%.
As for `O=C1NC(=O)C(c2ccccc2)(c2ccccc2)N1` [PHENYTOIN], the ED50 was 8.8 mg/kg in the data set with Mus musculus [12], more than 100 mg/kg in the data set filed under Mus musculus [14] and more than 300 mg/kg in the data set filed under Mus musculus [2].
Consider `CCCC(CCC)C(=O)[O-].[Na+]` [VALPROATE SODIUM], for which the ED50 in the data set with Mus musculus [12] was 272 mg/kg. The TD50 in data set [13] came to 42.6 mg/kg.
Regarding `CCCC(CCC)C(=O)O` [VALPROIC ACID], the Time in the data set filed under Mus musculus [7] turned out to be 7.2 min.
